Laboratory results from ChEMBL document CHEMBL1129670, “Synthesis and structure-activity relationships of N-propyl-N-(4-pyridinyl)-1H-indol-1-amine (besipirdine) and related analogs as potential therapeutic agents for Alzheimer's disease” (J Med Chem, 1996).

Legend:
[1] = target: Sodium-dependent noradrenaline transporter (Homo sapiens, UniProt P23975)
Description: Inhibitory activity against norepinephrine (NE) uptake in rat whole brain synaptosome preparation

[2] = target: Muscarinic acetylcholine receptor; format: cell membranes, Membrane
Description: Inhibition of [3H]quinuclidinyl benzilate (QNB) binding from rat forebrain membranes in the presence of Zn

[3] = target: Muscarinic acetylcholine receptor; format: cell membranes, Membrane; remark: listed apart in the source
Description: Inhibition of [3H]quinuclidinyl benzilate (QNB) binding from rat forebrain membranes in the absence of Zn

Mus musculus [4] = assay: Antagonistic activity against Scopolamine induced behavioral deficits in mice at dose 2.5 mg/kg sc; format: functional; conditions: route subcutaneous
Mus musculus [5] = assay: Antagonistic activity against Scopolamine induced behavioral deficits in mice at dose 1.25 mg/kg sc; 1/6; format: functional
Mus musculus [6] = species: Mus musculus; assay: animal or person
Description: Effective dose against administration in mice

[7] = target: T1, Adrenergic receptor alpha-2 (Rattus norvegicus, UniProt P22086+P19328+P22909); assay: Inhibitory activity against [3H]clonidine binding to Alpha-2 adrenergic receptor in rat cortex
T1 sequence (P22086 whole entry): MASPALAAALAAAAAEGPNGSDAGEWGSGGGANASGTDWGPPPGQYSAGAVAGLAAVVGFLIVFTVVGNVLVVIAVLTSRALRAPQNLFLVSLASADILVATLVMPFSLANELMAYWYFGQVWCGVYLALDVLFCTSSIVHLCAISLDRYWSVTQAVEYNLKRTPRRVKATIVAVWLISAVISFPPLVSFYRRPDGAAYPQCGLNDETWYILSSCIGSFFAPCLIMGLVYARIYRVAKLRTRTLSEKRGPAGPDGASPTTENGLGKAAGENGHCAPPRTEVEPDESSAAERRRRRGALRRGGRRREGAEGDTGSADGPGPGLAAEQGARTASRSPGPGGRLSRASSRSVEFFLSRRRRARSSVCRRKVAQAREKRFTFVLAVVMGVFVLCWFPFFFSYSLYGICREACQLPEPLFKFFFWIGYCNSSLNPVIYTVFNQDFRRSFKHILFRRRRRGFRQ
T1 sequence (P19328 whole entry): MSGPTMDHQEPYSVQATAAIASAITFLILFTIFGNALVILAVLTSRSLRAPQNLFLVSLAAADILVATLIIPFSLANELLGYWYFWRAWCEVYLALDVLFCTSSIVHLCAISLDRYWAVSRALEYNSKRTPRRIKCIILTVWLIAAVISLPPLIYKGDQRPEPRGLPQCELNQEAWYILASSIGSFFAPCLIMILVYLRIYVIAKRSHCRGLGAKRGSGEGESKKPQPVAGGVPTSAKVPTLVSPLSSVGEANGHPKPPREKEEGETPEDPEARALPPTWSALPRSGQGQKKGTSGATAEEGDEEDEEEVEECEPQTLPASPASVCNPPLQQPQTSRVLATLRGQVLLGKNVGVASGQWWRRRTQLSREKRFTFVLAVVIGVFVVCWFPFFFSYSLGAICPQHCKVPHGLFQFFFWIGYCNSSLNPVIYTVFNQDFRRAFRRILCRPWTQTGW
T1 sequence (P22909 whole entry): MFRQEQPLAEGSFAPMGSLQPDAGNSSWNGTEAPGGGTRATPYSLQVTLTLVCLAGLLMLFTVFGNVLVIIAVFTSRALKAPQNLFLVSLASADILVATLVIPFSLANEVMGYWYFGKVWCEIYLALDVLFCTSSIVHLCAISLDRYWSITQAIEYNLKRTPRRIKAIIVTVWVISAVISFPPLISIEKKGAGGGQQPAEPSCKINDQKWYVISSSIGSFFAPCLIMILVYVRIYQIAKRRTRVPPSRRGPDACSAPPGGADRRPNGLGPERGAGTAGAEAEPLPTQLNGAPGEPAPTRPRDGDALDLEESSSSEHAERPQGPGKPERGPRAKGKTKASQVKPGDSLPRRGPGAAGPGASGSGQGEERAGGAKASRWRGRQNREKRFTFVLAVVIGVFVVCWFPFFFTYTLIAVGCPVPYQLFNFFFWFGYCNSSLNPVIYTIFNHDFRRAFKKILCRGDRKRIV

Acetylcholinesterase = target: T2, Acetylcholinesterase (Rattus norvegicus, UniProt P37136)
T2 sequence (P37136 whole entry): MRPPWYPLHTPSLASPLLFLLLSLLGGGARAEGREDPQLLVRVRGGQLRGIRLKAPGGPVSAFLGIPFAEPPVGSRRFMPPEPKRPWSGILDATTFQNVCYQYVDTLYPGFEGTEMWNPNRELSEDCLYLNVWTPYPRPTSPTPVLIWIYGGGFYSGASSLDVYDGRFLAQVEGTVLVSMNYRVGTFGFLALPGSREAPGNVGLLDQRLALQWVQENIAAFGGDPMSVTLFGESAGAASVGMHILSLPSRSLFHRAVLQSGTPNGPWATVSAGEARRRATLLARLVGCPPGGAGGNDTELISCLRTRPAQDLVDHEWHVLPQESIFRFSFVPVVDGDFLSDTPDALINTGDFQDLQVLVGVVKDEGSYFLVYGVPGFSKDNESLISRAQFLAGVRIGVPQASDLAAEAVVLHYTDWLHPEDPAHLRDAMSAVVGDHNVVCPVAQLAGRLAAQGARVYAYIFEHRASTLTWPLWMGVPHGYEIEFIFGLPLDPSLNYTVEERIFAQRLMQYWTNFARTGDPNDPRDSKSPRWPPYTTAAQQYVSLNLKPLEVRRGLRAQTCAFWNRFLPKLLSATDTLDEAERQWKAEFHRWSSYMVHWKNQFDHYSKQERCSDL
Description: Inhibitory activity against acetylcholinesterase in rat striatal preparation

Mus musculus [8] = species: Mus musculus; assay: Antagonistic activity against Scopolamine induced behavioral deficits in mice; 0/9; format: functional
Mus musculus [9] = species: Mus musculus; assay: Antagonistic activity against Scopolamine induced behavioral deficits in mice; 1/10; format: functional
Mus musculus [10] = assay: Antagonistic activity against Scopolamine induced behavioral deficits in mice at dose 0.16 mg/kg sc; format: functional; conditions: route subcutaneous
Mus musculus [11] = species: Mus musculus; assay: Antagonistic activity against Scopolamine induced behavioral deficits in mice; 0/3; format: functional
Mus musculus [12] = species: Mus musculus; conditions: dose 5 mg/kg; route subcutaneous
Mus musculus [13] = assay: Antagonistic activity against Scopolamine induced behavioral deficits in mice at dose 1.25 mg/kg sc; format: functional; conditions: route subcutaneous
Mus musculus [14] = assay: Antagonistic activity against Scopolamine induced behavioral deficits in mice at dose […] sc; format: functional; conditions: route subcutaneous
Mus musculus [15] = species: Mus musculus; assay: Antagonistic activity against Scopolamine induced behavioral deficits in mice; 5/6; format: functional
Mus musculus [16] = species: Mus musculus; conditions: dose 2.5 mg/kg; route subcutaneous
Mus musculus [17] = species: Mus musculus
Mus musculus [18] = assay: Antagonistic activity against Scopolamine induced behavioral deficits in mice at dose 0.63 mg/kg sc; format: functional; conditions: route subcutaneous
Mus musculus [19] = assay: Antagonistic activity against Scopolamine induced behavioral deficits in mice at dose 0.04 mg/kg sc; format: functional; conditions: route subcutaneous
Mus musculus [20] = species: Mus musculus; assay: Antagonistic activity against Scopolamine induced behavioral deficits in mice; format: functional
Mus musculus [21] = assay: Antagonistic activity against Scopolamine induced behavioral deficits in mice at dose 5.0 mg/kg sc; format: functional; conditions: route subcutaneous
Mus musculus [22] = species: Mus musculus; assay: Antagonistic activity against Scopolamine induced behavioral deficits in mice; 4/6; format: functional
Mus musculus [23] = species: Mus musculus; conditions: dose 0.63 mg/kg; route subcutaneous
Mus musculus [24] = assay: Antagonistic activity against Scopolamine induced behavioral deficits in mice at dose 0.3 mg/kg sc; format: functional; conditions: route subcutaneous
Mus musculus [25] = species: Mus musculus; assay: Antagonistic activity against Scopolamine induced behavioral deficits in mice; 2/3; format: functional
Mus musculus [26] = assay: Antagonistic activity against Scopolamine induced behavioral deficits in mice at dose 1.0 mg/kg sc; format: functional; conditions: route subcutaneous
Mus musculus [27] = assay: Antagonistic activity against Scopolamine induced behavioral deficits in mice at dose 1.25 mg/kg sc; 0/6; format: functional
Mus musculus [28] = assay: Antagonistic activity against Scopolamine induced behavioral deficits in mice at dose 5.0 mg/kg sc; 1/3; format: functional
Mus musculus [29] = species: Mus musculus; assay: Antagonistic activity against Scopolamine induced behavioral deficits in mice; 1/3; format: functional
Mus musculus [30] = assay: Antagonistic activity against Scopolamine induced behavioral deficits in mice at dose 5.0 mg/kg sc; 2/6; format: functional
Mus musculus [31] = assay: Antagonistic activity against Scopolamine induced behavioral deficits in mice at dose 20 mg/kg sc; format: functional; conditions: route subcutaneous
Mus musculus [32] = species: Mus musculus; assay: Antagonistic activity against Scopolamine induced behavioral deficits in mice; 3/9; format: functional
Mus musculus [33] = assay: Antagonistic activity against Scopolamine induced behavioral deficits in mice at dose 10 mg/kg sc; format: functional; conditions: route subcutaneous

Chain of Sodium-dependent noradrenaline transporter (P23975 whole entry): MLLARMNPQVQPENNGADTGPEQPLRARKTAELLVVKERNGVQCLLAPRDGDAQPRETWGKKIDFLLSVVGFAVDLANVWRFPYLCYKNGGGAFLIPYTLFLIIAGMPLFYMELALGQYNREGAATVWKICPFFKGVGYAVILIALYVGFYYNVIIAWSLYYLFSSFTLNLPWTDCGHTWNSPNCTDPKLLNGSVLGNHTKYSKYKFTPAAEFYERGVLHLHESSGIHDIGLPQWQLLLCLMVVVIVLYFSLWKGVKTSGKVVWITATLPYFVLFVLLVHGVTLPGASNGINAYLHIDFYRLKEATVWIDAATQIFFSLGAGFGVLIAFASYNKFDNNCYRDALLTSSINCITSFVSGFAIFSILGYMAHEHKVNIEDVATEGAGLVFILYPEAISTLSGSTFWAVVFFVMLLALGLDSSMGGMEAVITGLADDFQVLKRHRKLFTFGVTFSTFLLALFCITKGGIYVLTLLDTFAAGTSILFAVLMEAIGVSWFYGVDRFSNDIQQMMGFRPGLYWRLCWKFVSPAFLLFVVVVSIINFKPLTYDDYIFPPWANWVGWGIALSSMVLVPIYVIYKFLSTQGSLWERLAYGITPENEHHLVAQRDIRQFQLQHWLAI

| SMILES | IC50 [1] | IC50 [2] | IC50 [3] | ED50 (Mus musculus [6]) | IC50 (Acetylcholinesterase) | other results |
| --- | --- | --- | --- | --- | --- | --- |
| CCCN(c1ccnc2cc(Cl)ccc12)n1ccc2ccccc21.O=C(O)/C=C/C(=O)O | 6.9 µM | 180 µM | > 300 µM | > 20 mg/kg | – | Response (Mus musculus [4]): 29%; Antagonism (Mus musculus [5]): 1 |
| CCCN(c1ccncc1)n1cc(CC)c2ccccc21 | 2.1 µM | 0.71 µM | 2.7 µM | 0.44 mg/kg | 20 µM | IC50 [7]: 3.6 µM; Antagonism (Mus musculus [8]): 0 |
| CCCN(c1ccncc1)n1cc(C(C)=O)c2ccccc21 | 3.3 µM | 2.7 µM | 29 µM | 5 mg/kg | 58 µM | Antagonism (Mus musculus [9]): 1; Response (Mus musculus [10]): 20% |
| Cc1cc2ccccc2n1Nc1ccncc1 | 3.6 µM | 29 µM | 60 µM | < 10 mg/kg | > 100 µM | Antagonism (Mus musculus [11]): 0 |
| CC(C)N(c1ccncc1)n1ccc2ccccc21 | 2.3 µM | 0.63 µM | 6 µM | 2.9 mg/kg | > 100 µM | Response (Mus musculus [12]): 20%; Response (Mus musculus [13]): 36%; IC50 [7]: > 10 µM; Response (Mus musculus [14]): 60%; Antagonism (Mus musculus [15]): 5; Response (Mus musculus [16]): 20%; Response (Mus musculus [10]): 33% |
| CCCN(c1cc(Cl)ncn1)n1ccc2ccccc21 | 2.6 µM | > 1000 µM | > 1000 µM | > 20 mg/kg | > 100 µM | Antagonism (Mus musculus [17]): 3; Response (Mus musculus [18]): 33%; Response (Mus musculus [4]): 33% |
| CCCCN(c1ccncc1)n1ccc2ccccc21 | 0.43 µM | 1.5 µM | 4 µM | 5.4 mg/kg | 62 µM | Response (Mus musculus [19]): 23%; IC50 [7]: 0.63 µM; Agonism (Mus musculus [20]): 1 |
| CCCN(c1ccncc1)n1ccc2cc(OC)ccc21 | 0.57 µM | 4.8 µM | 14 µM | > 20 mg/kg | > 100 µM | Response (Mus musculus [21]): 36%; Antagonism (Mus musculus [22]): 4; Response (Mus musculus [18]): 26%; Response (Mus musculus [14]): 20%; Response (Mus musculus [10]): 20% |
| CN(c1ccncc1)n1ccc2cc([N+](=O)[O-])ccc21 | > 30 µM | 7.6 µM | 29 µM | > 20 mg/kg | > 100 µM | Response (Mus musculus [23]): 20%; Response (Mus musculus [13]): 20%; Response (Mus musculus [21]): 20%; Antagonism (Mus musculus [22]): 4; Response (Mus musculus [10]): 20% |
| CCCN(c1ccncc1)n1cc(C#N)c2ccccc21 | 0.75 µM | 3.5 µM | 8.6 µM | 9.2 mg/kg | – | Response (Mus musculus [13]): 29%; Response (Mus musculus [21]): 27%; Response (Mus musculus [18]): 36%; Response (Mus musculus [14]): 53%; Antagonism (Mus musculus [15]): 5; Response (Mus musculus [10]): 40% |
| c1ccc2c(c1)ccn2Cc1ccncc1 | > 20 µM | 84 µM | 223 µM | – | – | Response (Mus musculus [24]): 33%; Antagonism (Mus musculus [25]): 2; Response (Mus musculus [26]): 20% |
| CCCN(c1ccncc1)n1ncc2ccccc21.O=C(O)/C=C/C(=O)O | 1.4 µM | 4 µM | 13 µM | 11 mg/kg | > 100 µM | Antagonism (Mus musculus [27]): 0 |
| CCCC(c1ccncc1)n1ccc2ccccc21 (centres undefined) | 0.67 µM | 29 µM | 142 µM | – | – | Response (Mus musculus [24]): 20%; Antagonism (Mus musculus [28]): 1 |
| CN(c1ccncc1)n1ccc2cc(Br)ccc21 | 13 µM | 2.5 µM | 4.6 µM | > 20 mg/kg | > 100 µM | Response (Mus musculus [26]): 44%; Antagonism (Mus musculus [29]): 1 |
| CCCN(c1ccncc1)n1ccc2cc(Br)ccc21 | 2.6 µM | 1.6 µM | 4.4 µM | > 20 mg/kg | > 100 µM | Response (Mus musculus [12]): 33%; Response (Mus musculus [23]): 33%; Antagonism (Mus musculus [30]): 2 |
| C#CCN(c1ccncc1)n1ccc2ccccc21 | 0.68 µM | 2.5 µM | 11 µM | 3.9 mg/kg | > 100 µM | Response (Mus musculus [31]): 27%; Antagonism (Mus musculus [32]): 3; IC50 [7]: 0.5 µM; Response (Mus musculus [16]): 21%; Response (Mus musculus [33]): 21% |
| Clc1ccc2c(ccn2Nc2ccncc2)c1 | > 20 µM | 5.9 µM | 42 µM | > 20 mg/kg | > 100 µM | Antagonism (Mus musculus [11]): 0 |
| c1ccc2c(c1)OCC(C1=NCCN1)O2 (centres undefined) [IDAZOXAN] | > 20 µM | – | – | – | – | Response (Mus musculus [12]): 33%; Response (Mus musculus [23]): 43%; Response (Mus musculus [13]): 47%; Response (Mus musculus [14]): 60%; Antagonism (Mus musculus [15]): 5; Response (Mus musculus [16]): 53% |
